Laboratory results as given in US10314784B2, “Compositions of glycopyrronium salt for inhalation” (Novartis AG, priority 2006, dated 2019).

Legend:
[1] = Particle size of micronised drug substance after jet milling; assay type: physicochemical; details: after micronisation in jet mill
Experimental: 37 g of magnesium […] are mixed with 1 kg of crystalline glycopyrronium bromide in a Turbula® blender for 5 hours. The resulting mixture is micronised using a Hosokawa Alpine® 100 AFG fluid bed opposed jet mill with the following parameters: classifier speed, 13000 rpm; milling gas pressure, 3.5 bar. The mill is equipped with 3 nozzles of 1.9 mm diameter.
The resulting mixture has a median particle size of about 3 micron (x90=7 micron, x50=3 micron, x10=1 micron). The magnesium stearate is well distributed over the drug substance surface.
(§1) Drug substance 1:50 g of magnesium stearate are mixed with 1 kg of crystalline glycopyrronium bromide in a Turbula® blender for 5 hours. The resulting mixture is micronised using a Hosokawa Alpine® 100 AFG fluid bed opposed jet mill (equipped with 3 nozzles of 1.9 mm diameter) with the following parameters: classifier speed, 13000 rpm; milling gas pressure, 3.5 bar, to give particles that have an average particle size of less than 5 microns.
as §1, with “2:” for “1:50 g of magnesium stearate are mixed with”, “glycopyrroninum” for “glycopyrronium”, “bromide” for “bromide in a Turbula® blender for 5 hours. The resulting mixture”

[2] = single administration of a metered dose, aerosol formulation, asthma; cited from earlier work

Row | SMILES | average particle size [1] | duration of bronchodilation [2]
1 | C[N+]1(C)CCC(OC(=O)C(O)(c2ccccc2)C2CCCC2)C1 (centres unmarked) [Drug substance 2, glycopyrroninum bromide] | less than 5 microns | –
2 | C[N+]1(C)CCC(OC(=O)C(O)(c2ccccc2)C2CCCC2)C1.[Br-] (centres unmarked) [glycopyrrolate, 3-[(cyclopentyl-hydroxyphenylacetyl)oxy]-1,1-dimethyl-pyrrolidinium bromide] | – | up to 12 hours
